Measurements taken from PMC6600671, “Design and Synthesis of Indoleamine 2,3-Dioxygenase 1 Inhibitors and Evaluation of Their Use as Anti-Tumor Agents” (Molecules, 2019).
“And” between values parts separate entries of the source, which are not always exact repeats. Equal values may be shown once. “Also recorded” adds a separate entry of the source. Read-outs that look alike come from different tables or passages of the source.

What was measured:
[1] = molecular target: rhIDO1 (Homo sapiens, UniProt P14902); assay: Enzyme-based IDO1 activity assay (kynurenine absorbance at 492 nm); assay type: biochemical; conditions: rhIDO1 0.05 μM, 37 °C, 45 min; read-out: IDO IC50
Sequence of rhIDO1 (P14902 whole entry): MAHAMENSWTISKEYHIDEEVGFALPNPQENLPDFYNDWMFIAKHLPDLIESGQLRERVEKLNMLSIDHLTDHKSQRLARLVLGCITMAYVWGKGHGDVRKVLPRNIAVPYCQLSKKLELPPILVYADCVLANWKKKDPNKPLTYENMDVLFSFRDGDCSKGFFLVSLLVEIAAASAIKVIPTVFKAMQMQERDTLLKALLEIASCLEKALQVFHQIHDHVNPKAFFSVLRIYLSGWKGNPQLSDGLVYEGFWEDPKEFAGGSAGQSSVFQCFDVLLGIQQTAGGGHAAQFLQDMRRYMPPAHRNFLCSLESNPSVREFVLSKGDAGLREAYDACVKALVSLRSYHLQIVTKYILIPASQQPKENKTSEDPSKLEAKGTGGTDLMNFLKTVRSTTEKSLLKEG
Description: (§1) The compounds on IDO1 or TDO activity were determined as follows: A standard reaction mixture (100 μL) containing 100 mM potassium phosphate buffer (pH 6.5), 40 mM ascorbic acid (neutralized with NaOH), 200 μg/mL catalase, 20 μM methylene blue and 0.05 μM rhIDO1 or rhTDO was added to the solution containing the substrate L-tryptophan and the test sample at a determined concentration. […] The yellow pigment derived from kynurenine was measured at 492 nm using a SYNERGY-H1 microplate reader (Biotek Instruments, Inc., Winooski, VT, USA). IC50 was analyzed using the GraphPad Prism 8.0 software (GraphPad Software, San Diego, CA, USA).

[2] = Body weight and white blood cells in B16F10 xenograft mice; assay type: in vivo; conditions: 30 or 60 mg/kg/day oral or i.p.
Description: (§2) The mouse melanoma cells B16F10 were cultured and harvested in saline. At day 0 of the experiment, 1 × 10^6 cells were injected subcutaneously into mice, and treatment was initiated at day 1 following the mice enrolled randomly in control and experimental groups. For control group, 0.5% CMCNa was orally administered every day. Compound DX-03-12 was dissolved in 0.5% CMC for oral treatment or dissolved in saline for intraperitoneal treatment. When the mice were sacrificed, the tumors were stripped and weighted. […] The statistical analysis was performed with GraphPad Prism 8.0 software and the significance level was evaluated with a one-way ANOVA model.

[3] = test system: mouse melanoma cells B16F10; assay: In vivo anti-tumor efficacy, B16F10 subcutaneous xenograft model; design: species or system mice; conditions: 60 mg/kg/day, 19 days treatment
Description: C57BL/6 mice were obtained from Beijing Vital River Laboratory Animal Technology Co., Ltd. (Beijing Vital River Laboratory Animal Technology Co., Ltd, Beijing, China). Studies involving mice were approved by the Experimental Animal Management and Welfare Committee at the Institute of Materia Medica, Peking Union Medical College.
as §2

[4] = test system: NCI-H460 human lung cancer cell line; assay: Cell viability MTT assay, 72 h; assay type: cell-based; conditions: at 50 μM, shown when calculated IC50 >50 μM, read-out: H460 inhibition rate (%) at 50 μM
Description: (§3) B16-F10 mouse melanoma cells, NCI-H460 human lung cancer cell line and MCF7 were obtained from American Type Culture Collection (ATCC). All the cell lines were cultured with Dulbecco’ modified Eagle’s medium (DMEM) (Invitrogen Corporation, Waltham, MA, USA) supplemented with 10% fetal bovine serum (FBS) (Hyclone, Waltham, MA, USA) and 1% penicillin streptomycin (Invitrogen) at 37 °C in 5% CO2.
(§4) The in vitro inhibitory effects of the compounds were measured by MTT assay. Briefly, different kinds of cells were plated in 96-well plates at a density of 2000/well. After attachment for overnight at 37 °C, the cells were treated with the compounds at various concentrations. After 72 h culture, the MTT reagent was added to each well, and plates were incubated for another 4 h at 37 °C. Then, the blue-purple crystal formamidine was dissolved in DMSO after discarding the supernatant. Samples were measured using microplate reader at a wavelength of 570 nm (Biotek Instruments, Inc., Winooski, VT, USA). IC50 values were calculated with GraphPad Prism 8.0 software.

[5] = test system: MCF7; assay: Cell viability MTT assay, 72 h; assay type: cell-based; conditions: Homo sapiens, at 50 μM, shown when calculated IC50 >50 μM, read-out: MCF7 inhibition rate (%) at 50 μM
Description: as §3, §4

[6] = Single dose pharmacokinetic study in male ICR mice; assay type: in vivo; conditions: for half-life: read-out: t1/2β (converted)
Description: The animal Care and Welfare Committee of Institute of Materia Medica, Chinese Academy of Medical Sciences approved all animal care, housing, and laboratory procedures. Male ICR mice were used in the single dose pharmacokinetic studies. Compound DX-03-12 was prepared as 3 mg/mL suspension with 0.5% CMC (containing 0.3% Tween 80) for oral use and was formulated as 3 mg/mL solution with 5% DMSO in saline for intravenous injection. Twenty mice were divided into two groups, 10 in each group. After fasting 12 h with free access to water, mice were treated with a 3 mg/kg i.v. or 30 mg/kg oral dose of compound DX-03-12. Blood samples (50 µL) were collected at 5, 15, 30 min, 1, 2, 4, 6, 8, 12 and 24 h after oral administration and 2, 5, 15, 30 min, 1, 2, 4, 6, 8, 12 and 24 h after intravenous injection. After centrifugation, the plasma samples (15 µL) were precipitated by five volumes of acetonitrile. The supernatant were analyzed by liquid chromatography/tandem mass spectrometry (Agilent Technologies, Santa Clara, CA, USA) with a Zobax C18 column (50 mm × 2.1 mm, 3.5 µm). Compound detection was performed with the mass spectrometer in MRM (multiple reaction monitoring, Agilent Technologies, Santa Clara, CA, USA) negative ionization mode. The selected reaction monitoring transitions were m/z 348.5→160 for compound DX-03-12. The pharmacokinetic parameters were calculated with WinNonlin software V6.3 using non-compartmental analysis (Pharsight Corporation, Mountain View, CA, USA).

[7] = molecular target: rhTDO (Homo sapiens, UniProt P48775); assay: Enzyme-based TDO activity assay (kynurenine absorbance at 492 nm); assay type: biochemical
Sequence of rhTDO (P48775 whole entry): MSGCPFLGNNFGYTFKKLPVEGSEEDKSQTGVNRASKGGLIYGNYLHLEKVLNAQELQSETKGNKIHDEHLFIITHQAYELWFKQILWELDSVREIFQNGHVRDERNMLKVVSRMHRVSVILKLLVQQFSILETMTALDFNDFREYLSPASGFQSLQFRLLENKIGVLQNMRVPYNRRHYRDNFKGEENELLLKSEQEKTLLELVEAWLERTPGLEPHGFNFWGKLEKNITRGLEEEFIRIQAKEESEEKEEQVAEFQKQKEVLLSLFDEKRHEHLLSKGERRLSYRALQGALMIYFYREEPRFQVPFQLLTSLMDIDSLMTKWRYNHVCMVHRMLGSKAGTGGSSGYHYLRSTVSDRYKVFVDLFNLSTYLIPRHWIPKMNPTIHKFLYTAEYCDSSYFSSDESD
Description: as §1

[8] = test system: pathway; conditions: reported value; cited from earlier work
[9] = mouse, plasma, PO 30 mg/kg, male ICR mice
[10] = mouse, plasma, iv 3 mg/kg, male ICR mice

## O=S(=O)(NCCCOc1ccccc1-c1cnc[nH]1)C(F)(F)F [DX-03-12, N-(3-(2-(1H-imidazol-5-yl)phenoxy)propyl)-1,1,1-trifluoromethane sulfonamide]
[1]
  IC50: 300 nM
[2]
  effect on body weight of the mice: no obvious weight loss; also recorded: no obvious effect
  effect on peripheral white blood cells: no obvious effect
[3]; i.p.
  decrease in tumor weight (tumor growth inhibition) vs control: 72.3%
[3]; oral
  decrease in tumor weight (tumor growth inhibition) vs control: 72.2%
[4]
  inhibition at 50 µM: 19.3%
[5]
  inhibition at 50 µM: 6.6%
[6]; PO 30 mg/kg, male ICR mice, 30 mg/kg
  t1/2β: 4.6 h and 4.61 h
[6]; iv 3 mg/kg, male ICR mice, 3 mg/kg
  Vss: 10.1 L/kg
[6]; iv 3 mg/kg, hepatic blood flow 90 mL/min/kg
  plasma clearance as % of mouse hepatic blood flow: ~36%
[6]; male, ICR, mouse, plasma, iv, 3 mg/kg, iv 3 mg/kg, male ICR mice, read-out: Vss
  Vd: 10 L/kg
[6]; male, ICR, mouse, plasma, iv, 3 mg/kg, iv 3 mg/kg, male ICR mice
  half-life: 209 min
[6]; male, ICR, mouse, plasma, oral, 30 mg/kg, PO 30 mg/kg vs iv 3 mg/kg, male ICR mice, read-out: F% (oral bioavailability)
  bioavailability: ~96%
[6]; male, ICR, mouse, plasma, po, 30 mg/kg, PO 30 mg/kg, male ICR mice
  half-life: ~276 min
[6]; [9]
  AUC(0-inf): 13100 ng·h/mL
  AUC(0-t): 12900 ng·h/mL
  Tmax: 60 min
[6]; [10]
  AUC(0-inf): 1500 ng·h/mL
  AUC(0-t): 1350 ng·h/mL
  Tmax: 1.98 min
  clearance: 33.3 mL/min/kg
[6]; mouse, PO 30 mg/kg, male ICR mice, plasma
  Cmax: 2960 ng/mL
[6]; mouse, iv 3 mg/kg, male ICR mice, plasma
  Cmax: 2140 ng/mL
[7]
  TDO inhibition, in words: marginal
[7]; at 50 μM, shown when calculated IC50 >50 μM, read-out: TDO inhibition rate (%) at 50 μM
  inhibition at 50 µM: 36.4%

## Cn1cc(C[C@@H](N)C(=O)O)c2ccccc21 [indoximod]
[8]
  IC50: 450 nM
